{
  "source": "patent US7816357B2",
  "about": "“Azabicyclic heterocycles as cannabinoid receptor modulators” (Bristol-Myers Squibb Company, priority 2003, dated 2010)",
  "origin": "cited, not measured here",
  "tested_on": "human subjects",
  "details": "16 week trial period, published Phase IIb data",
  "data": [
    {"smiles": "Cc1c(C(=O)NN2CCCCC2)nn(-c2ccc(Cl)cc2Cl)c1-c1ccc(Cl)cc1", "note": "[SR-141716]", "values": [
      {"measurement": "body weight in human subjects", "result": "dose-dependently reduced body weight"}
    ]}
  ]
}
